Measured values from US5863889A, “ICAM-1/LFA-1 short-chain peptides and method of using same” (The University of Kansas, priority 1996, dated 1999).

Tested on: Molt3 cells
Test: Homotypic adhesion assay (MDHC-induced clumping of T-cells)
Type: cell-based, human
Design: key to Homotypic Adhesion Amount: Any sample having a score of "+++" or "++++" is considered to have a significant ability to modulate T-cell binding interaction; Any sample having a score of "+++" or "++++" is considered to have a significant ability to modulate T-cell binding interaction
Conditions: 10 μM MDHC
Method: As before, the T-cells were Molt3 cells prepared in RPMI 1640 growth medium according to Example 2. An approximate 7 ml aliquot of the growth medium was centrifuged (Jouan Model GT422 at 1400 rpm for 6.5 minutes), and the supernatant fluid was decanted. The pellet was resuspended in the supernatant fluid at titer of about 1×10^6 cells/ml, with the excess supernatant fluid being retained for future resuspension of the peptides.
A 228 nmol quantity of the LJCRF-1 (Sequence ID No. 6) peptide described in Table 1 was diluted with the supernatant fluid to a 500 μl final volume, and filtered in microcentrifuge filter tubes (0.22 micron filter; 3500 rpm for 6 minutes). Serial dilution of the filtered peptide with supernatant fluid was conducted to yield five 125 μl peptide solutions to give respective concentrations of about 115 μM, 230 μM, 460 μM, 910 μM, and 1.82 mM. At each concentration, a 125 μl portion of the cell suspension was pipetted into each 125 μl portion of the peptide solutions to yield combined samples having a 250 μl volume. The 250 μl samples were seeded into individual wells in a 48-well tissue culture grade plate (from Costar of Cambridge, Md.) and incubated at 37° C. for 30 minutes. Each sample received 5 μl of 2,5-methyl dihydroxy cinnamate ("MDHC") for a 10 μM final concentration, and was subsequently incubated for about 10 hours at 37° C. MDHC induces intercellular clumping of human T-cells (Tibbetts, Butler, and Benedict, submitted) by activating the LFA/ICAM binding interaction between respective cells.
Pictures were taken of five random fields per sample using an Olympus photomicroscope having a 0.8 mm field at 400×magnification, and a 3.2 mm field of view at 100×magnification. The amount of clumping observed was quantified by determining the mean number of clumps per field ± a standard error.
FIGS. 5, 6, and 7 replicate photographs taken from exemplary peptide assays. FIG. 5 is a photograph of the control sample having no peptides and no MDHC added, from which essentially no clumping of cells is observed. […] Any sample having a score of "+++" or "++++" is considered to have a significant ability to modulate T-cell binding interaction. This is similar to results obtained by incubating similarly treated cells with antibody against either LFA or ICAM.
The homotypic adhesion assay assesses the actual ability of a candidate peptide to modulate the ability of T-cells to adhere with one another.

Substance: SC-3-111: ICAM-1 based short-chain peptide, Sequence ID No. 10 (QTSVSPSKVI)
- Homotypic Adhesion Effect (peptide 230 μM): Block
- Homotypic Adhesion Effect (peptide 460 μM): Block
- Homotypic Adhesion Amount (peptide 910 μM): ++++
- Homotypic Adhesion Effect (peptide 910 μM): Block
- Homotypic Adhesion Amount (peptide 1820 μM): +++
- Homotypic Adhesion Effect (peptide 1820 μM): Block
